Test results reported in paper PMC5681660, “Reduced hepatitis B and D viral entry using clinically applied drugs as novel inhibitors of the bile acid transporter NTCP” (Scientific Reports, 2017).
Where a name gives a salt, the structure may show the parent alone.

Target: T1, human NTCP (Homo sapiens, UniProt Q14973)
T1 sequence (Q14973 1-349): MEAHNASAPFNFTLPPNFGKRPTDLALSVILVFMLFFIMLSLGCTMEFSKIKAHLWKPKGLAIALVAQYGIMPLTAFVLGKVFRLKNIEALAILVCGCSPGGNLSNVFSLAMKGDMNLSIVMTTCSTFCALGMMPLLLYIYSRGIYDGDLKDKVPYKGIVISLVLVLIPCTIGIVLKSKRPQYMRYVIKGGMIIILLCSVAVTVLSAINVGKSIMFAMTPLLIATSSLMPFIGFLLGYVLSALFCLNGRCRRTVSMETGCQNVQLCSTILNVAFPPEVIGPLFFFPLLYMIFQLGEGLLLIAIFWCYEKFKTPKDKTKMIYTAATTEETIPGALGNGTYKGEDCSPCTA
Assay: Screening taurocholate uptake assay (96-well, [14C]taurocholate, 10 µM drug)
Conditions: for B-score functional assay: screening taurocholate uptake, 10 µM drug

[1] = combined ranking of functional and binding screening assays
[2] = ranking over the functional and the binding screening assay

Ranking score [1] | B-score functional assay | Ranking score [2] | B-score functional assay (B-score) | Compound
615.067 | 0.508 |  |  | CCCCC[C@H](O)/C=C/[C@@H]1[C@@H](C/C=C\CCCC(=O)O)[C@@H](O)C[C@H]1O [Dinoprost trometamol]
607.829 | 0.868 |  |  | Cc1cccn2c(=O)c(-c3nnn[nH]3)cnc12 [Pemirolast potassium]
1149.4 |  |  | 0.976 | O=C(NCCO[N+](=O)[O-])c1cccnc1 [Nicorandil]
627.155 | -0.592 |  |  | COc1c(N2CCNC(C)C2)c(F)cc2c(=O)c(C(=O)O)cn(C3CC3)c12 (stereo not shown) [Gatifloxacin]
591.633 | 0.716 |  |  | CN(C)[C@@H]1C(O)=C(C(=O)NCNCCCC[C@H](N)C(=O)O)C(=O)[C@@]2(O)C(O)=C3C(=O)c4c(O)cccc4[C@@](C)(O)[C@H]3C[C@@H]12 [Lymecycline]
535.985 | 0.068 |  |  | NC(=O)N/N=C/c1ccc([N+](=O)[O-])o1 [Nitrofural]
488.87 | 0.176 |  |  | COC1=C(OC)C(=O)C(CCCCCCCCCCO)=C(C)C1=O [Idebenone]
601.655 | -0.681 |  |  | Cc1ccc(S(=O)(=O)NC(=O)NN2CCCCCC2)cc1 [Tolazamide]
620.435 | 0.202 |  |  | COc1ccc(-c2ccc3cc(C(=O)O)ccc3c2)cc1C12CC3CC(CC(C3)C1)C2 [Adapalene]
560.357 | -1.028 |  |  | CC(C)(O/N=C(\C(=O)N[C@@H]1C(=O)N2C(C(=O)[O-])=C(C[n+]3ccccc3)CS[C@H]12)c1csc(N)n1)C(=O)O [Ceftazidime pentahydrate]
 | 0.065 | 244.119 |  | NC(=O)c1cnccn1 [Pyrazinamide]
 | -4.734 | 12.2474 |  | O=c1c2ccccc2[se]n1-c1ccccc1 [Ebselen]
 | -0.152 | 197.388 |  | CC1=C(/C=C/C(C)=C/C=C/C(C)=C/C(=O)O)C(C)(C)CCC1 [Retinoic acid]
503.354 | 0.451 |  |  | Cn1c(NCCN(CCO)CCCc2ccc([N+](=O)[O-])cc2)cc(=O)n(C)c1=O [Nifekalant]
599.166 | -0.168 |  |  | CC(C)NC[C@H](O)COc1cccc2ccccc12 [(S)-propranolol hydrochloride]
635.421 | 0.703 |  |  | N=C(N)NC(=O)Cc1c(Cl)cccc1Cl [Guanfacine hydrochloride]
 | -5.305 | 130.111 |  | CN1CCCN=C1/C=C/c1cccc(O)c1.O=C(O)c1cc2ccccc2c(Cc2c(O)c(C(=O)O)cc3ccccc23)c1O [Oxantel pamoate]
1154.72 |  |  | 1.996 | C[C@@H](O)[C@H]1C(=O)N2C(C(=O)O)=C(SCCN=CN)C[C@H]12 [Imipenem]
1148.84 |  |  | 1.693 | CN1CCN(c2c(F)cc3c(=O)c(C(=O)O)cn(CCF)c3c2F)CC1 [Fleroxacin]

Compound | Ranking score [1] | B-score functional assay | Ranking score [2] | B-score functional assay (B-score)
O=C1CC2(CCCC2)CC(=O)N1CCCCN1CCN(c2ncccn2)CC1 [Buspirone hydrochloride] |  | -0.772 | 215.998 | 
CCN(CC)CCc1nc(-c2ccccc2)no1.O=C(O)CC(O)(CC(=O)O)C(=O)O [Oxalamine citrate salt] | 587.786 | 0.505 |  | 
CCOC(=O)[N-]c1cn(N2CCOCC2)n[o+]1 [Molsidomine] | 467.403 | 0.63 |  | 
C[C@@H]1C[C@H]2[C@@H]3C[C@H](F)C4=CC(=O)C=C[C@]4(C)[C@@]3(F)[C@@H](O)C[C@]2(C)[C@@]1(O)C(=O)COC(=O)C(C)(C)C [Flumethasone pivalate] | 535.546 | 0.019 |  | 
